System: CD8 cells & tumor cell lines (K562, M21, CRL2505, MDA-MB-231, A549, TC71, MG63, RD, U138MG)
Assay: Isolated CD8 cells in co-culture with tumor cell lines of diverse origin: IFN-gamma, IL-2, granzyme
Assay type: cell-based, human
Procedure: Isolated PBMCs, NK cells or CD8 positive cells were plated in Xvivo medium at 1.5*10^5 cells per in 96 well culture plates in the presence of 0.3*10^4 tumor cells where indicated. Cytokine secretion was determined by ELISA, immune cell activation (using Beckman-Coulter Abs CD25-PC5, CD69-PC7), cell viability and numbers by flow cytometry (Beckman-Coulter FC500 or Gallios) using 7-AAD exclusion as criterion for living cells. PBMCs were isolated and incubated with and without compounds, either alone or in co-culture with different tumor cells.

## Cl.N[C@H]1CS(=O)(=O)c2cc(F)c(C(=O)NCCCC(F)(F)F)cc2N(Cc2ccc(Cl)cc2)C1=O [Example 70, (3R)-3-amino-5-[(4-chlorophenyl)methyl]-8-fluoro-1,1,4-trioxo-N-(4,4,4-trifluoro-butyl)-2,3,4,5-tetrahydro-1λ^6,5-benzothiazepine-7-carboxamide hydrochloride]
CD8 cells & A549, 0.1 μM
  Granzyme: 0.04 ng/mL
  IFN-gamma: 0.01 ng/mL
  IL-2: 0.00 ng/mL
CD8 cells & A549, 0.3 μM
  Granzyme: 0.09 ng/mL
  IFN-gamma: 0.03 ng/mL
  IL-2: 0.15 ng/mL
CD8 cells & A549, 1 μM
  Granzyme: 0.10 ng/mL
  IFN-gamma: 0.08 ng/mL
  IL-2: 0.36 ng/mL
CD8 cells & A549, 3 μM
  Granzyme: 0.07 ng/mL
  IFN-gamma: 0.07 ng/mL
  IL-2: 0.28 ng/mL
CD8 cells & A549, 10 μM
  Granzyme: 0.16 ng/mL
  IFN-gamma: 0.16 ng/mL
  IL-2: 0.59 ng/mL
CD8 cells & K562, 0.1 μM
  Granzyme: 1.58 ng/mL
  IFN-gamma: 6.97 ng/mL
  IL-2: 3.86 ng/mL
CD8 cells & K562, 0.3 μM
  Granzyme: 2.38 ng/mL
  IFN-gamma: 7.57 ng/mL
  IL-2: 3.20 ng/mL
CD8 cells & K562, 1 μM
  Granzyme: 1.81 ng/mL
  IFN-gamma: 11.23 ng/mL
  IL-2: 4.08 ng/mL
CD8 cells & K562, 3 μM
  Granzyme: 3.91 ng/mL
  IFN-gamma: 8.44 ng/mL
  IL-2: 3.72 ng/mL
CD8 cells & K562, 10 μM
  Granzyme: 4.83 ng/mL
  IFN-gamma: 8.26 ng/mL
  IL-2: 2.82 ng/mL
CD8 cells & M21, 0.1 μM
  Granzyme: 0.24 ng/mL
  IFN-gamma: 0.00 ng/mL
  IL-2: 0.39 ng/mL
CD8 cells & M21, 0.3 μM
  Granzyme: 0.53 ng/mL
  IFN-gamma: 0.02 ng/mL
  IL-2: 0.31 ng/mL
CD8 cells & M21, 1 μM
  Granzyme: 0.41 ng/mL
  IFN-gamma: 0.06 ng/mL
  IL-2: 0.67 ng/mL
CD8 cells & M21, 3 μM
  Granzyme: 0.40 ng/mL
  IFN-gamma: 0.03 ng/mL
  IL-2: 0.64 ng/mL
CD8 cells & M21, 10 μM
  Granzyme: 0.50 ng/mL
  IFN-gamma: 0.10 ng/mL
  IL-2: 0.47 ng/mL
CD8 cells & MDA-MB-231, 0.1 μM
  Granzyme: 1.86 ng/mL
  IFN-gamma: 10.72 ng/mL
  IL-2: 1.51 ng/mL
CD8 cells & MDA-MB-231, 0.3 μM
  Granzyme: 3.40 ng/mL
  IFN-gamma: 20.55 ng/mL
  IL-2: 2.14 ng/mL
CD8 cells & MDA-MB-231, 1 μM
  Granzyme: 4.23 ng/mL
  IFN-gamma: 22.31 ng/mL
  IL-2: 2.40 ng/mL
CD8 cells & MDA-MB-231, 3 μM
  Granzyme: 5.20 ng/mL
  IFN-gamma: 25.24 ng/mL
  IL-2: 3.21 ng/mL
CD8 cells & MDA-MB-231, 10 μM
  Granzyme: 5.93 ng/mL
  IFN-gamma: 24.22 ng/mL
  IL-2: 3.63 ng/mL
CD8 cells & MG63, 0.1 μM
  Granzyme: 0.23 ng/mL
  IFN-gamma: 0.92 ng/mL
  IL-2: 0.00 ng/mL
CD8 cells & MG63, 0.3 μM
  Granzyme: 0.29 ng/mL
  IFN-gamma: 1.43 ng/mL
  IL-2: 0.00 ng/mL
CD8 cells & MG63, 1 μM
  Granzyme: 0.28 ng/mL
  IFN-gamma: 1.79 ng/mL
  IL-2: 0.00 ng/mL
CD8 cells & MG63, 3 μM
  Granzyme: 0.38 ng/mL
  IFN-gamma: 1.92 ng/mL
  IL-2: 0.00 ng/mL
CD8 cells & MG63, 10 μM
  Granzyme: 0.44 ng/mL
  IFN-gamma: 2.36 ng/mL
  IL-2: 0.00 ng/mL
CD8 cells & RD, 0.1 μM
  Granzyme: 0.09 ng/mL
  IFN-gamma: 0.12 ng/mL
  IL-2: 0.00 ng/mL
CD8 cells & RD, 0.3 μM
  Granzyme: 0.16 ng/mL
  IFN-gamma: 0.45 ng/mL
  IL-2: 0.00 ng/mL
CD8 cells & RD, 1 μM
  Granzyme: 0.20 ng/mL
  IFN-gamma: 0.54 ng/mL
  IL-2: 0.00 ng/mL
CD8 cells & RD, 3 μM
  Granzyme: 0.17 ng/mL
  IFN-gamma: 0.65 ng/mL
  IL-2: 0.00 ng/mL
CD8 cells & RD, 10 μM
  Granzyme: 0.30 ng/mL
  IFN-gamma: 1.59 ng/mL
  IL-2: 0.00 ng/mL
CD8 cells & TC71, 0.1 μM
  Granzyme: 0.06 ng/mL
  IFN-gamma: 0.04 ng/mL
  IL-2: 0.58 ng/mL
CD8 cells & TC71, 0.3 μM
  Granzyme: 0.08 ng/mL
  IFN-gamma: 0.11 ng/mL
  IL-2: 0.97 ng/mL
CD8 cells & TC71, 1 μM
  Granzyme: 0.10 ng/mL
  IFN-gamma: 0.14 ng/mL
  IL-2: 1.25 ng/mL
CD8 cells & TC71, 3 μM
  Granzyme: 0.10 ng/mL
  IFN-gamma: 0.27 ng/mL
  IL-2: 1.14 ng/mL
CD8 cells & TC71, 10 μM
  Granzyme: 0.15 ng/mL
  IFN-gamma: 0.38 ng/mL
  IL-2: 1.57 ng/mL
CD8 cells & U138MG, 0.1 μM
  Granzyme: 0.03 ng/mL
  IFN-gamma: 0.00 ng/mL
  IL-2: 0.00 ng/mL
CD8 cells & U138MG, 0.3 μM
  Granzyme: 0.04 ng/mL
  IFN-gamma: 0.01 ng/mL
  IL-2: 0.00 ng/mL
CD8 cells & U138MG, 1 μM
  Granzyme: 0.01 ng/mL
  IFN-gamma: 0.02 ng/mL
  IL-2: 0.04 ng/mL
CD8 cells & U138MG, 3 μM
  Granzyme: 0.03 ng/mL
  IFN-gamma: 0.02 ng/mL
  IL-2: 0.02 ng/mL
CD8 cells & U138MG, 10 μM
  Granzyme: 0.05 ng/mL
  IFN-gamma: 0.06 ng/mL
  IL-2: 0.08 ng/mL
CD8 cells only, 0.1 μM
  Granzyme: 0.05 ng/mL
  IFN-gamma: 0.00 ng/mL
  IL-2: 0.00 ng/mL
CD8 cells only, 0.3 μM
  Granzyme: 0.04 ng/mL
  IFN-gamma: 0.00 ng/mL
  IL-2: 0.00 ng/mL
CD8 cells only, 1 μM
  Granzyme: 0.05 ng/mL
  IFN-gamma: 0.00 ng/mL
  IL-2: 0.00 ng/mL
CD8 cells only, 3 μM
  Granzyme: 0.04 ng/mL
  IFN-gamma: 0.00 ng/mL
  IL-2: 0.00 ng/mL
CD8 cells only, 10 μM
  Granzyme: 0.05 ng/mL
  IFN-gamma: 0.00 ng/mL
  IL-2: 0.00 ng/mL
